Assay results reported in ChEMBL document CHEMBL6121046, “Discovery of Novel Hydrazide-Based HDAC3 Inhibitors as Epigenetic Immunomodulators for Cancer Immunotherapy” (J Med Chem, 2025).

Tests used:
B16-F10 = experiment: Antiproliferative activity against mouse B16-F10 cells at 1 uM measured after 48 hrs incubation by MTT assay relative to control
Histone deacetylase 3 = Histone deacetylase 3 (Homo sapiens, UniProt O15379); experiment: Inhibition of human recombinant HDAC3 pre-incubated with compounds for 10 mins measured followed by 60 mins of substrate addition
Chain of Histone deacetylase 3 (O15379 whole entry): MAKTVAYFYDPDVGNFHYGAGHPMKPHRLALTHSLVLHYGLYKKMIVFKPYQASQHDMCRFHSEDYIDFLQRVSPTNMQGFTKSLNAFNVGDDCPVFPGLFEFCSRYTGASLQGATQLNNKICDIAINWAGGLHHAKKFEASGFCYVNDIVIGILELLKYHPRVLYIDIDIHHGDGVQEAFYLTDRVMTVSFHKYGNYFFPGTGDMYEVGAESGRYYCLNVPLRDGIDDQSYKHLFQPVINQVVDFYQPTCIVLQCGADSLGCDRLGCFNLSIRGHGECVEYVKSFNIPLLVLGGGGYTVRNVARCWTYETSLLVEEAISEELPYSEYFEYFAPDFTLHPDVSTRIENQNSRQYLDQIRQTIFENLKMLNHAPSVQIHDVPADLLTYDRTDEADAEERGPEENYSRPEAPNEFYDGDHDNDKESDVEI

| Structure (SMILES) | Activity (B16-F10) [%] | IC50 (Histone deacetylase 3) [nM] |
| --- | --- | --- |
| CCCNNC(=O)c1ccc(CNC(=O)c2cnc(-c3ccc4[nH]ccc4c3)[nH]2)cc1 | 2.77 | – |
| COc1ccc(-c2ncc(C(=O)NCCCCCCC(=O)NO)s2)c(OC)c1 | – | 31 |
| Nc1ccccc1NC(=O)c1ccc(CNC(=O)c2cnc(-c3ccc(F)cc3)[nH]2)cc1 | 9.98 | – |
